Measurements published in US9725414B2, “Fungicidal N-bicycloalkyl and N-tricycloalkyl pyrazole-4-(thio)carboxamide derivatives” (priority 2011, dated 2017).
Where two headings read alike, the source gives them in different places.

Assays:
[1] = tested on: Sphaerotheca fuliginea; test: Example B: in vivo preventive test on Sphaerotheca fuliginea (powdery mildew on cucurbits), gherkin plants; settings: 500 ppm of active ingredient, grading 12 days after contamination
Experimental: In Vivo Preventive Test on Sphaerotheca fuliginea (Powdery Mildew on Cucurbits) […] Gherkin plants (“Vert petit de Paris” variety), sown in starter cups on a 50/50 peat soil-pozzolana substrate and grown at 24° C. are treated at the Z11 cotyledon stage by spraying with the active ingredient prepared as described above. Plants, used as controls, are treated with the mixture of acetone/tween/DMSO/water not containing the active material. After 24 hours, the plants are contaminated by spraying the cotyledons with an aqueous suspension of Sphaerotheca fuliginea spores (100 000 spores per mL). The spores are collected from infected plants.

[2] = tested on: Alternaria solani; test: Example C: in vivo preventive test on Alternaria solani (tomato); settings: 500 ppm of active ingredient, evaluated 7 days after inoculation
Experimental: (§1) In Vivo Preventive Test on Alternaria solani (Tomato) Solvent: 49 parts by weight of N,N-dimethylformamide Emulsifier: 1 part by weight of alkylarylpolyglycolether To produce a suitable preparation of active compound, 1 part by weight of active compound is mixed with the stated amounts of solvent and emulsifier, and the concentrate is diluted with water to the desired concentration. To test for preventive activity, young plants are sprayed with the preparation of active compound at the stated rate of application. One day after this treatment, the plants are inoculated with an aqueous spore suspension of Alternaria solani. The plants remain for one day in an incubation cabinet at approximately 22° C. and a relative atmospheric humidity of 100%. Then the plants are placed in an incubation cabinet at approximately 20° C. and a relative atmospheric humidity of 96%.

[3] = tested on: Pyrenophora teres; test: Example E: in vivo preventive test on Pyrenophora teres (barley), DMF/emulsifier preparation; settings: 500 ppm of active ingredient, evaluated 7-9 days after inoculation
Experimental: as §1, with “Pyrenophora teres (Barley)” for “Alternaria solani (Tomato)”, “alkylaryl polyglycol ether” for “alkylarylpolyglycolether”, “Pyrenophora teres.” for “Alternaria solani.”, “48 hours” for “one day”, “at” for “at approximately”, “100%.” for “100%. Then the plants are placed in an incubation cabinet at approximately 20° C. and a relative atmospheric humidity of 96%.”

[4] = tested on: Puccinia recondita; test: Example M: in vivo preventive test on Puccinia recondita (brown rust on wheat); settings: 500 ppm of active ingredient, grading 12 days after contamination
Experimental: In Vivo Preventive Test on Puccinia recondita (Brown Rust on Wheat) […] Wheat plants (“Scipion” variety), sown in starter cups on a 50/50 peat soil pozzolana substrate and grown at 22° C., are treated at the 1 leaf stage (10 cm height) by spraying with the active ingredient prepared as described above. Plants, used as controls, are treated with the mixture of acetone/tween/DMSO/water not containing the active material. After 24 hours, the plants are contaminated by spraying the leaves with an aqueous suspension of Puccinia recondite spores (100 000 spores per mL). The spores are collected from an infected plant and are suspended in water containing 2.5 mL/L of Tween 80 at 10%. […] Grading (% of efficacy) is carried out 12 days after the contamination, in comparison with the control plants.

[5] = tested on: Pyrenophora teres; test: Example F: in vivo preventive test on Pyrenophora teres (barley), acetone/tween/DMSO preparation; settings: 500 ppm of active ingredient, barley, grading 14 days after contamination
Experimental: In Vivo Preventive Test on Pyrenophora teres (Barley) […] Barley plants (“Plaisant” variety), sown in starter cups on a 50/50 peat soil pozzolana substrate and grown at 22° C., are treated at the 1 leaf stage (10 cm height) by spraying with the active ingredient prepared as described above. Plants, used as controls, are treated with the mixture of acetone/tween/DMSO/water not containing the active material. After 24 hours, the plants are contaminated by spraying the leaves with an aqueous suspension of Pyrenophora teres spores (12 000 spores per mL). The spores are collected from a 12-day-old culture. […] Grading (% of efficacy) is carried out 14 days after the contamination, in comparison with the control plants.

[6] = tested on: Septoria tritici; test: Example I: in vivo preventive test on Septoria tritici (wheat), acetone/tween/DMSO preparation; settings: 500 ppm of active ingredient, grading 24 days after contamination
Experimental: In Vivo Preventive Test on Septoria tritici (Wheat) […] Wheat plants (“Scipion” variety), sown in starter cups on a 50/50 peat soil pozzolana substrate and grown at 22° C., are treated at the 1 leaf stage (10 cm height) by spraying with the active ingredient prepared as described above. Plants, used as controls, are treated with the mixture of acetone/tween/DMSO/water not containing the active material. After 24 hours, the plants are contaminated by spraying the leaves with an aqueous suspension of cryopreserved Septoria tritici spores (500 000 spores per mL). The contaminated wheat plants are incubated for 72 hours at 18° C. and at 100% relative humidity, and then for 21 days at 90% relative humidity. Grading (% of efficacy) is carried out 24 days after the contamination, in comparison with the control plants.

[7] = log P by HPLC on reversed-phase column (C 18), EEC Directive 79831 Annex V.A8; type: physicochemical
Experimental: In table 1, the log P values were determined in accordance with EEC Directive 79831 Annex V.A8 by HPLC (High Performance Liquid Chromatography) on a reversed-phase column (C 18), using the method described below: Temperature: 40° C.; Mobile phases: 0.1% aqueous formic acid and acetonitrile; linear gradient from 10% acetonitrile to 90% acetonitrile. Calibration was carried out using unbranched alkan-2-ones (comprising 3 to 16 carbon atoms) with known log P values (determination of the log P values by the retention times using linear interpolation between two successive alkanones). lambda-max-values were determined using UV-spectra from 200 nm to 400 nm and the peak values of the chromatographic signals.

[8] = HPLC reversed-phase C 18, 40° C., 0.1% aqueous formic acid and acetonitrile gradient, several values = mixture of two or more isomers

logP [7]	SMILES	Efficacy [2] [%]	Efficacy [3] [%]	other results
–	Cn1cc(C(=O)N(C2CC2)C2CCC3CCCC3C2)c(C(F)F)n1 (mixture of isomers) [Example 23]	80	100	Efficacy [1]: 83%; Efficacy [4]: 81%
–	Cn1cc(C(=O)NC2CCCC3CCCCC32)c(C(F)F)n1 (mixture of isomers) [Example 29]	–	–	Efficacy [1]: 95%
–	Cn1nc(C(F)F)c(C(=O)NC2CCCC3CCCCC32)c1Cl (mixture of isomers) [Example 30]	–	–	Efficacy [1]: 100%
–	Cn1cc(C(=O)N(C2CC2)C2CCCC3CCCCC32)c(C(F)F)n1 (mixture of isomers) [Example 33]	–	–	Efficacy [1]: 94%; Efficacy [5]: 100%; Efficacy [6]: 92%
–	Cn1nc(C(F)F)c(C(=O)NC2CCC3CCCCC3C2)c1Cl (mixture of isomers) [Example 34]	95	70	–
–	Cn1nc(C(F)F)c(C(=O)NC2CCC3CCCCC3C2)c1F (mixture of isomers) [Example 35]	80	–	–
–	Cn1cc(C(=O)N(C2CC2)C2CCC3CCCCC3C2)c(C(F)F)n1 (mixture of isomers) [Example 36]	95	100	–
–	Cn1nc(C(F)F)c(C(=O)N(C2CC2)C2CCC3CCCCC3C2)c1Cl (mixture of isomers) [Example 37]	95	100	–
3.76	Cc1nn(C)c(F)c1C(=O)NC1CCCC2C1C(C)CC2(C)C (centres unmarked) [Example 15]	89	100	–
4.49	CC1CC(C)(C)C2CCCC(NC(=O)c3c(C(F)F)nn(C)c3Cl)C12 (centres unmarked) [Example 16]	–	100	–
4.00	CC1CC(C)(C)C2CCCC(NC(=O)c3cn(C)nc3C(F)(F)F)C12 (centres unmarked) [Example 17]	94	95	–
4.90	Cn1nc(C(F)F)c(C(=S)N(C2CC2)C2CCC3CCCC3C2)c1F (centres unmarked) [Example 24]	–	95	–
4.83	CC(C)N(C(=O)c1c(C(F)F)nn(C)c1Cl)C1CCCC2CCCCC21 (centres unmarked) [Example 26]	–	–	–
4.58	CC(C)N(C(=O)c1c(C(F)F)nn(C)c1F)C1CCCC2CCCCC21 (centres unmarked) [Example 27]	–	–	–
4.41	Cn1nc(C(F)F)c(C(=S)NC2CCCC3CCCCC32)c1F (centres unmarked) [Example 28]	70	95	–
3.92	Cn1nc(C(F)F)c(C(=O)NC2C3(C)CCC(C3)C2(C)C)c1Cl (centres unmarked) [Example 39]	–	–	–
3.70	Cn1nc(C(F)F)c(C(=O)NC2C3(C)CCC(C3)C2(C)C)c1F (centres unmarked) [Example 40]	–	–	–
3.35	Cn1cc(C(=O)NC2C3(C)CCC(C3)C2(C)C)c(C(F)F)n1 (centres unmarked) [Example 41]	–	–	–
2.34	Cn1nc(C(F)F)c(C(=O)NC2(C#N)CC3CCC2C3)c1Cl (centres unmarked) [Example 43]	–	–	–
1.97	Cn1cc(C(=O)NC2(C#N)CC3CCC2C3)c(C(F)F)n1 (centres unmarked) [Example 44]	–	–	–

logP [7]	SMILES	Efficacy [2] [%]	Efficacy [3] [%]	other results
2.16	Cn1nc(C(F)F)c(C(=O)NC2(C#N)CC3CCC2C3)c1F (centres unmarked) [Example 45]	–	–	–
3.06	Cn1cc(C(=O)NC23CC4CC(CC(C4)C2)C3)c(C(F)F)n1 [Example 55]	–	–	–
3.96	Cn1nc(C(F)F)c(C(=O)N(CC2CCC3CCCC32)C2CC2)c1F (centres unmarked) [Example 58]	–	–	Efficacy [5]: 100%; Efficacy [4]: 98%
–	Cn1nc(C(F)F)c(C(=O)N(CC2CCC3CCCC3C2)C2CC2)c1Cl (centres unmarked) [Example 64]	–	–	logP [7, 8]: 4.59; Efficacy [1]: 89%; Efficacy [5]: 71%; Efficacy [6]: 93%; Efficacy [4]: 94%
4.82	CC1C(CN(C(=O)c2c(C(F)F)nn(C)c2Cl)C2CC2)CC2CC1C2(C)C (centres unmarked) [Example 79]	94	100	–
4.25	CC1C(CNC(=O)c2c(C(F)F)nn(C)c2Cl)CC2CC1C2(C)C (centres unmarked) [Example 80]	100	100	–
3.99	CC1C(CNC(=O)c2c(C(F)F)nn(C)c2F)CC2CC1C2(C)C (centres unmarked) [Example 81]	100	100	–
3.62	Cn1nc(C(F)F)c(C(=O)NCC2CCC3CC2C3(C)C)c1F (centres unmarked) [Example 84]	95	100	–
3.29	Cn1cc(C(=O)NCC23CC4CC(CC(C4)C2)C3)c(C(F)F)n1 [Example 87]	–	–	Efficacy [1]: 79%; Efficacy [4]: 75%
–	Cn1nc(C(F)F)c(C(=O)NCC23CC4CC(CC(C4)C2)C3)c1Cl [Example 88]	100	–	logP [7, 8]: 3.89
–	Cn1nc(C(F)F)c(C(=O)NCC23CC4CC(CC(C4)C2)C3)c1F [Example 89]	95	–	logP [7, 8]: 3.67
4.27	CC(NC(=O)c1c(C(F)F)nn(C)c1Cl)C12CC3CC(CC(C3)C1)C2 (centres unmarked) [Example 106]	100	90	–
4.03	CC(NC(=O)c1c(C(F)F)nn(C)c1F)C12CC3CC(CC(C3)C1)C2 (centres unmarked) [Example 107]	95	80	–
4.68	Cn1nc(C(F)F)c(C(=O)N(CC23CC4CC(CC(C4)C2)C3)C2CC2)c1Cl [Example 108]	–	–	–
4.49	Cn1nc(C(F)F)c(C(=O)N(CC23CC4CC(CC(C4)C2)C3)C2CC2)c1F [Example 109]	–	–	–
4.04	COc1nn(C)c(F)c1C(=O)N(CC12CC3CC(CC(C3)C1)C2)C1CC1 [Example 110]	–	–	–
3.92	Cn1cc(C(=O)N(CC23CC4CC(CC(C4)C2)C3)C2CC2)c(C(F)F)n1 [Example 111]	–	–	–
4.92	CC1CC1N(C(=O)c1c(C(F)(F)F)nn(C)c1F)C(C)C1CC2CCC1C2 (centres unmarked) [Example 112]	–	–	–
–	CC(NC1CC1)C12CC3CC(CC(C3)C1)C2 (centres unmarked) [N-[1-(adamantan-1-yl)ethyl]cyclopropanamine]	–	–	chromatographic logP [7]: 5.82
